Measured values taken from the NIST ThermoML archive (doi:10.1016/j.tca.2014.12.004).

Experiments:
[1] = for thermal conductivity: 101.33 kPa
[2] = Molar enthalpy of transition or fusion; details: Crystal; DSC

CCCCCCCCCCCC(=O)O [dodecanoic acid]
[1]
Details	Normal melting temperature [°C]	thermal conductivity [W/m/K]
303.15 K, Crystal	–	0.216
308.15 K, Crystal	–	0.218
313.15 K, Crystal	–	0.208
323.15 K, Liquid	–	0.14
333.15 K, Liquid	–	0.14
Crystal, DTA	42.80	–

Details	Molar enthalpy of transition or fusion [kcal/mol]
[2]	7.56
